Reference: patent US20200297798A1, “KEY AMINO ACID SITES […] EXPORT OF NUC[…] INFLUENZA A AND B VIRUSES AND USE THEREOF AS ANTI-INFLUENZA VIRUS DRUG TARGETS” (INSTITUTE OF MICROBIOLOGY, CHINESE ACADEMY OF SCIENCES, priority 2017, published 2020)
“And” between values parts separate entries of the source, which are not always exact repeats. Equal values may be shown once. Read-outs that look alike come from different tables or passages of the source.

Tests used:
[1] = tested on: influenza A virus WSN A/WSN/1933 (H1N1); parameters: species or system BALB/c mice; conditions: mouse, in vivo
[2] = tested on: influenza B virus Lee40; parameters: species or system BALB/c mice; conditions: mouse, in vivo
[3] = tested on: influenza B virus Lee40; conditions: A549 cells, MOI=1, 12 ng naproxen per dish, FIG. 8B
[4] = molecular target: influenza B virus nucleoprotein (BNP) (Influenza B virus, UniProt P04665); conditions: ITC; protein BNP
[5] = molecular target: influenza A virus nucleoprotein (ANP) (Influenza A virus, UniProt P15682); conditions: ITC; protein ANP
[6] = molecular target: binding of BNP to CRM1 (Influenza B virus, UniProt P04665)
[7] = tested on: influenza A virus WSN A/WSN/1933 (H1N1); conditions: A549 cells, MOI=0.1, 12 ng naproxen per dish, FIG. 8A
[8] = molecular target: binding of ANP to CRM1 (Influenza A virus, UniProt P15682)
Sequence of binding of ANP to CRM1 (P15682 whole entry): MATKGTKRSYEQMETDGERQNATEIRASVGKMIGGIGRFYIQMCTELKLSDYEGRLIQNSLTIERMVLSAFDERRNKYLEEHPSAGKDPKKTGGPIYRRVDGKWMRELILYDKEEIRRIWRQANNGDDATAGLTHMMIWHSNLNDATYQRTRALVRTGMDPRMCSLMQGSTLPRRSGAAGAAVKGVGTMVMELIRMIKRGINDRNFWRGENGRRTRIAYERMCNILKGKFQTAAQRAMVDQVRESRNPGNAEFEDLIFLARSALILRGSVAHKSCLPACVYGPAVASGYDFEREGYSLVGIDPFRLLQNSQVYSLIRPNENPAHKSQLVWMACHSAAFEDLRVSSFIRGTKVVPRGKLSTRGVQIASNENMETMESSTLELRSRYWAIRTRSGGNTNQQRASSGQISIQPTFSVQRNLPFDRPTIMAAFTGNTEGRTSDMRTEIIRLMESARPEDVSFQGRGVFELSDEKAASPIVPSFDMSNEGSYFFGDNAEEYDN

Sequence of influenza B virus nucleoprotein (BNP) (P04665 whole entry): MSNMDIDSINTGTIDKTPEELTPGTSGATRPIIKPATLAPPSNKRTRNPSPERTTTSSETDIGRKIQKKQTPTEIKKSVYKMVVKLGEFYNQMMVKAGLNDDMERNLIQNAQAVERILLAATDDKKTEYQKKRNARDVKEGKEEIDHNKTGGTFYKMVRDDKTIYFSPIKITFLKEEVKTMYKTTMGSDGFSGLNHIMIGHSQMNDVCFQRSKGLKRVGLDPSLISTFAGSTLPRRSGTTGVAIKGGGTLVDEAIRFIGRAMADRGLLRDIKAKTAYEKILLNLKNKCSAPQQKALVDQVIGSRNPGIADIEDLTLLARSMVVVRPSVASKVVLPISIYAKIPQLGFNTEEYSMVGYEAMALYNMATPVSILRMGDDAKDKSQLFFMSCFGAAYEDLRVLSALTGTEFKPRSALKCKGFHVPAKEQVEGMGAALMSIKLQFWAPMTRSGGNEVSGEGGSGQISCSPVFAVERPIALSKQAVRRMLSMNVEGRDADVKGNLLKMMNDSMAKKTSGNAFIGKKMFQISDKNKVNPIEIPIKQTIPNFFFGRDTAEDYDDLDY
Sequence of influenza A virus nucleoprotein (ANP) (P15682 whole entry): as the sequence (P15682 whole entry) above
Sequence of binding of BNP to CRM1 (P04665 whole entry): as the sequence (P04665 whole entry) above

CCOC(=O)C1=C[C@@H](OC(CC)CC)[C@H](NC(C)=O)[C@@H](N)C1 [oseltamivir]
body weight course after infection [1]: slowly recovered | lung index (lung mass/body weight) [1]: lung indexes were lower | lung injuries (macroscopical lesions) [1]: lung injuries were milder | survival rate [1]: 100% | viral load of the lung, treatment effect [1]: better | body weight course after infection [2]: slowly recovered | survival rate [2]: 37.5%

COc1ccc2cc(C(C)C(=O)O)ccc2c1 (stereo not drawn) [naproxen, (+) α-methyl-6-methoxy-2-naphthaleneacetic acid]
virus titer versus untreated cells [3]: significant decrease in virus titer | n (stoichiometry) [4]: 0.93 | ΔH [4]: -0.325 kcal/mol | ΔS [4]: 138.40 J/mol · K | n (stoichiometry) [5]: 1.23 | ΔH [5]: -1.33 kcal/mol | ΔS [5]: 64.76 J/mol · K | binding of BNP to CRM1 [6]: did not bind to CRM1 | virus titer versus untreated cells [7]: significant decrease in virus titer | binding of ANP to CRM1 [8]: did not bind to CRM1 | body weight course after infection [1]: slowly recovered | lung injuries (macroscopical lesions) [1]: lung injuries were milder | viral load of the lung, treatment effect [1]: better | body weight course after infection [2]: slowly recovered | lung injuries (macroscopical lesions) [2]: lung injuries were milder | viral load of the lung, treatment effect [2]: better | survival rate ([2]; ip): 75% and 100%
